Data published in PMC6920875, “Dithiocarbamate as a Valuable Scaffold for the Inhibition of Metallo-β-Lactmases” (Biomolecules, 2019).
Structures can show the parent of a compound that is named as a salt.

Assays:
[1] = target: T1, VIM-2 (Escherichia coli, UniProt Q5U7L7); type: biochemical; details: read-out: IC50 against VIM-2; substrate cefazolin 40 µM, 30 mM Tris pH 7.0, 25 °C, 5 min pre-incubation, inhibitor up to 200 μM
T1 construct: made in house; host or cells: E. coli BL21 (DE3), plasmid pET24a-VIM-2
Procedure: (§1) The dithiocarbamates, MβLs and substrates samples were prepared with 30 mM Tris, pH 7.0. […] Enzymes and inhibitors were pre-incubated for 5 min before adding substrate. […] The IC50 values were nonlinearly fitted by plotting the average percentage inhibition against inhibitor concentration. The inhibition modes of DC1 to ImiS, NDM-1 and L1 were assayed by generating Lineweaver–Burk plots, and Ki values were obtained by fitting initial velocity versus substrate concentration at each inhibitor concentration, using SigmaPlot 12.0 (Systat Software Inc., San Jose, CA, USA).
(§2) To evaluate the inhibitory activity of the dithiocarbamates, we over-expressed and purified MβLs NDM-1, VIM-2 and IMP-1 (B1), ImiS (B2), and L1 (B3) from three subclasses as previously reported. The inhibition experiments were performed with an Agilent UV8453 spectrometer. […] The concentrations of inhibitors were varied between 0 and 200 μM. The initial reaction rates were determined in the absence and presence of inhibitors in triplicate, and the generated average values were recorded.

[2] = target: T2, IMP-1 (Serratia marcescens, UniProt P52699); experiment: biochemical; details: read-out: IC50 against IMP-1; substrate cefazolin 40 µM, 30 mM Tris pH 7.0, 25 °C, 5 min pre-incubation, inhibitor up to 200 μM
T2 construct: made in house; host or cells: E. coli BL21 (DE3), plasmid pET26b-IMP-1
Procedure: as §1, §2

[3] = target: T3, L1 (Stenotrophomonas maltophilia, UniProt P52700); experiment: biochemical; details: read-out: IC50 against L1; substrate cefazolin 40 µM, 30 mM Tris pH 7.0, 25 °C, 5 min pre-incubation, inhibitor up to 200 μM
T3 construct: made in house; host or cells: E. coli BL21 (DE3), plasmid pET-26b-L1
Procedure: as §1, §2

[4] = target: T4, NDM-1 (Klebsiella pneumoniae, UniProt C7C422); experiment: biochemical; details: read-out: IC50 against NDM-1; substrate cefazolin 40 µM, 30 mM Tris pH 7.0, 25 °C, 5 min pre-incubation, inhibitor up to 200 μM
T4 construct: made in house; host or cells: E. coli BL21 (DE3), plasmid pET26b-NDM-1
Procedure: as §1, §2

[5] = target: T5, ImiS (Aeromonas veronii, UniProt O31272); experiment: biochemical; parameters: species or system Aeromonas veronii bv. sobria; details: read-out: IC50 against ImiS; substrate imipenem 40 µM, 30 mM Tris pH 7.0, 25 °C, 5 min pre-incubation, inhibitor up to 200 μM
T5 construct: made in house; host or cells: E. coli BL21 (DE3), plasmid pET-26b-ImiS
Procedure: as §1, §2

[6] = tested on: E. coli BL21 expressing ImiS; experiment: MIC determination, broth micro-dilution, imipenem with inhibitor; type: cell-based; details: 64 μg/mL inhibitor
Procedure: (§3) The minimum inhibitory concentration (MIC) of antibiotics, both alone and in the presence of enzyme inhibitors, was determined using the broth micro-dilution method. Single colonies of E. coli BL21, containing plasmid, pET26b-NDM-1, pET26b-ImiS or pET26b-L1 in lysogeny broth agar plates, were transferred into 5 mL of Mueller–Hinton (MH) liquid medium. Strains grown in MH medium to OD600 = 0.45 were used as inocula, after an 84-fold dilution to 1 × 10^5 CFU/mL in MH medium. […] Compound DCs as inhibitors were dissolved in MH media, to prepare 1024, 512, 256, 128, 64 and 32 μg/mL stock solutions. The prepared solutions with different antibiotic concentrations (50 μL) were diluted to 100 μL, with different concentrations of inhibitor solution (50 μL), then 100 μL inoculum was added sequentially into the prepared solutions, to yield a quarter of the initial concentrations. The mixtures were incubated at 37 °C for 16 h. […] Each measurement was performed in duplicate.
(§4) The ability of the dithiocarbamate derivatives to inhibit MβLs, and to restore the antimicrobial activity of antibiotics, was investigated by determining the minimum inhibitory concentrations (MICs) of existing antibiotics in the presence and absence of DC1-10, as previously reported. E. coli BL21 (DE3) containing plasmids pET26b-NDM-1, pET26b-ImiS and pET26b-L1 were used to assess these inhibitors.

[7] = tested on: E. coli BL21 expressing L1; experiment: MIC determination, broth micro-dilution, cefazolin with inhibitor; type: cell-based; details: 64 μg/mL inhibitor
Procedure: as §3, §4

[8] = tested on: E. coli BL21 expressing NDM-1; experiment: as above; type: cell-based; details: E. coli BL21-NDM-1; 64 μg/mL inhibitor
Procedure: as §3, §4

[9] = tested on: mouse fibroblast cells (L-929); experiment: Cytotoxicity assay (MTT); type: cell-based; details: concentration as high as 250 μM, 48 h
Procedure: The cytotoxicity assays were performed to evaluate the toxicity of DC1, DC3, DC7 and DC9 in mouse fibroblast cells (L-929). The cells were seeded into 96-well plates at a cell density of 1.0 × 10^4 cells/well, in 100 μL of culture medium and maintained for 24 h. Then, the inhibitors with working concentrations (15.6, 31.25, 62.5, 125, 250, and 500 μM) were added to the 96-well plates and incubated for another 48 h. Three wells containing only cells were suspended in a mixture solution of 98 μL complete medium, as controls for cell viability without inhibitors. Three wells containing only the complete medium were used as blank controls. Following that, the medium was removed, and 100 μL of fresh culture medium and 10 μL MTT were added to each well. After incubation for 4 h, the trays were then vigorously shaken to solubilize the formed product, and the absorbance, at a wavelength of 490 nm, was read on a microplate reader and analyzed. All experiments were conducted in triplicate, and the data are expressed as mean ± standard deviation.
The potential toxicity of dthiocarbamates DC1, DC3, DC7 and DC9 as representatives was assayed using the mouse fibroblast cells (L929) treated with different concentrations of inhibitors (15.625, 31.25, 62.5, 125, 250 and 500 μM).

[10] = target: T4, NDM-1; experiment: Time-dependence inhibition experiment, residual activity; type: biochemical; details: 13 nM NDM-1 incubated with inhibitor at its IC50 for 8 h
[11] = tested on: Cc1nnc(SCC2=C(C(=O)O)N3C(=O)[C@@H](NC(=O)Cn4cnnn4)[C@H]3SC2)s1; experiment: purified protein, by the assay type; details: other: test conditions: 30 mM Tris pH 7.0, 25 °C
[12] = tested on: C[C@@H](O)[C@H]1C(=O)N2C(C(=O)O)=C(SCCN=CN)C[C@H]12; experiment: purified protein, by the assay type; details: other: test conditions: 30 mM Tris pH 7.0, 25 °C

T3 sequence (P52700 34-290): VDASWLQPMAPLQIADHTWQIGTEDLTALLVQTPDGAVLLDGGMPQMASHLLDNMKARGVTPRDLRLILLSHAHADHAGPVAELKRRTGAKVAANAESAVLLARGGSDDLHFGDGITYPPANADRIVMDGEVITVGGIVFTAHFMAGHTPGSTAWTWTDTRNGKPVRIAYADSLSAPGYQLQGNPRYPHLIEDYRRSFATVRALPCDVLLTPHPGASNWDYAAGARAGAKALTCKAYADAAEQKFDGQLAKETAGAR
T4 sequence (C7C422 29-270 limits assumed): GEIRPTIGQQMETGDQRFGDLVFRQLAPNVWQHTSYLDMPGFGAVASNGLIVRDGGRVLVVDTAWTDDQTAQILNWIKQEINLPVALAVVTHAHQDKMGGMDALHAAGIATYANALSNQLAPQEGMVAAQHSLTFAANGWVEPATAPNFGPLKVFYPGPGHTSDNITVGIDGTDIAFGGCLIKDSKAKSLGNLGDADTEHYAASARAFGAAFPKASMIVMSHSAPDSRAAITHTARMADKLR
T2 sequence (P52699 19-246 limits assumed): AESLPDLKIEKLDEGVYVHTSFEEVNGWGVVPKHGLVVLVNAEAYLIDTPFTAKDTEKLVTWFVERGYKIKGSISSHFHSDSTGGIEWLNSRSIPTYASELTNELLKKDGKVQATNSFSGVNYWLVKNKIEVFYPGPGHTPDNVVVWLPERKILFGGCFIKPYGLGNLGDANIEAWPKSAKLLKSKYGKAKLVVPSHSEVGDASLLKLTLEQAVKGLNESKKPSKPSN
T5 sequence (O31272 28-255 limits assumed): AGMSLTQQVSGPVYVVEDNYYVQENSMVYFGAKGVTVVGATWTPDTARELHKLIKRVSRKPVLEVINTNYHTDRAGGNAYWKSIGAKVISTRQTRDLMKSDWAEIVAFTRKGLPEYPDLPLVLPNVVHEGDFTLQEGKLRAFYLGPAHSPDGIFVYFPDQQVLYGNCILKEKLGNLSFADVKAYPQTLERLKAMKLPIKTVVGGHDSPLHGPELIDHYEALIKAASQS

Row | Compound | melting point [°C] | IC50 [1] [µM] | IC50 [2] [µM] | IC50 [3] [µM] | IC50 [4] [µM] | IC50 [5] [µM] | also measured
1 | O=C(CCc1ccccc1)NNC(=S)[S][K] (as salt: potassium) [DC9, Potassium 2-(3-phenylpropanoyl)hydrazine-1-carbodithioate] | 170 to 171 | – | – | – | – | – | –
2 | O=C(Cc1ccccc1)NNC(=S)[S][K] [DC2] | 150 to 151 | > 200 | 166 ± 2.7 | 86.8 ± 1.6 | 5.64 ± 0.1 | 2.5 ± 0.1 | –
3 | O=C(NNC(=S)[S][K])c1ccc(O)cc1 [DC3] | 298 to 299 | 82.8 ± 1.1 | > 200 | > 200 | 67.1 ± 0.9 | > 200 | fold reduction in MIC of imipenem [6]: no inhibitory effects; fold reduction in MIC of cefazolin [7]: no inhibitory effects; fold reduction in MIC of cefazolin [8]: no inhibitory effects; survival rate of L929 mouse cells [9]: higher than 80%
4 | Nc1ccccc1C(=O)NNC(=S)[S][K] [DC4] | 233 to 234 | 139 ± 2.05 | 103 ± 1.45 | 177 ± 2.8 | 11.4 ± 0.4 | 1.08 ± 0.05 | –
5 | O=C(NNC(=S)[S][K])c1ccc(Cl)cc1 [DC5] | > 300 | > 200 | > 200 | > 200 | 91.3 ± 1.7 | 129 ± 2.1 | –
6 | O=C(NNC(=S)[S][K])c1cccc(Br)c1 [DC6] | > 300 | > 200 | > 200 | 154 ± 3.2 | 15.2 ± 0.9 | 2.56 ± 0.05 | –
7 | CC(C)(C)c1ccc(C(=O)NNC(=S)[S][K])cc1 [DC7] | > 300 | 63.5 ± 1.3 | 96.4 ± 1.2 | 191 ± 4 | 0.52 ± 0.01 | > 200 | survival rate of L929 mouse cells [9]: higher than 80%
8 | O=C(NNC(=S)[S][K])c1ccccc1 [DC8] | – | – | – | 25.81 ± 0.12 | – | – | time dependence of NDM-1 inhibition (residual activity) [10]: no time-dependent inhibition
9 | O=C(CCc1ccccc1)NNC(=S)[S][K] [DC9, Potassium 2-(3-phenylpropanoyl)hydrazine-1-carbodithioate] | – | 115 ± 3.1 | 86.2 ± 0.9 | > 200 | 62.7 ± 1.05 | 156 ± 2.2 | survival rate of L929 mouse cells [9]: higher than 80%
10 | O=C(NNC(=S)[S][K])C(O)c1ccccc1 (centres unmarked) [DC10, Potassium 2-(2-hydroxy-2-phenylacetyl)hydrazine-1-carbodithioate] | – | – | – | – | – | – | time dependence of NDM-1 inhibition (residual activity) [10]: no time-dependent inhibition
11 | IMP-1 (Serratia marcescens) | – | – | – | – | – | – | Km [11]: 73 µM
12 | ImiS (Aeromonas veronii) | – | – | – | – | – | – | Km [12]: 52 µM
13 | L1 (Stenotrophomonas maltophilia) | – | – | – | – | – | – | Km [11]: 60 µM
14 | NDM-1 (Klebsiella pneumoniae) | – | – | – | – | – | – | Km [11]: 15 µM
15 | VIM-2 (Escherichia coli) | – | – | – | – | – | – | Km [11]: 97 µM
